The source of these data is patent publication US8124647B2 (priority 2002, dated 2012).

Assay [1] has as its target T1, human androgen receptor (Homo sapiens, UniProt P10275).
T1 construct: expressed in transfected cells; host or cells: CHO cells, cell line CHO-AR-pMMTV-LUC 1G12-A5-CA
T1 sequence (P10275 1-920): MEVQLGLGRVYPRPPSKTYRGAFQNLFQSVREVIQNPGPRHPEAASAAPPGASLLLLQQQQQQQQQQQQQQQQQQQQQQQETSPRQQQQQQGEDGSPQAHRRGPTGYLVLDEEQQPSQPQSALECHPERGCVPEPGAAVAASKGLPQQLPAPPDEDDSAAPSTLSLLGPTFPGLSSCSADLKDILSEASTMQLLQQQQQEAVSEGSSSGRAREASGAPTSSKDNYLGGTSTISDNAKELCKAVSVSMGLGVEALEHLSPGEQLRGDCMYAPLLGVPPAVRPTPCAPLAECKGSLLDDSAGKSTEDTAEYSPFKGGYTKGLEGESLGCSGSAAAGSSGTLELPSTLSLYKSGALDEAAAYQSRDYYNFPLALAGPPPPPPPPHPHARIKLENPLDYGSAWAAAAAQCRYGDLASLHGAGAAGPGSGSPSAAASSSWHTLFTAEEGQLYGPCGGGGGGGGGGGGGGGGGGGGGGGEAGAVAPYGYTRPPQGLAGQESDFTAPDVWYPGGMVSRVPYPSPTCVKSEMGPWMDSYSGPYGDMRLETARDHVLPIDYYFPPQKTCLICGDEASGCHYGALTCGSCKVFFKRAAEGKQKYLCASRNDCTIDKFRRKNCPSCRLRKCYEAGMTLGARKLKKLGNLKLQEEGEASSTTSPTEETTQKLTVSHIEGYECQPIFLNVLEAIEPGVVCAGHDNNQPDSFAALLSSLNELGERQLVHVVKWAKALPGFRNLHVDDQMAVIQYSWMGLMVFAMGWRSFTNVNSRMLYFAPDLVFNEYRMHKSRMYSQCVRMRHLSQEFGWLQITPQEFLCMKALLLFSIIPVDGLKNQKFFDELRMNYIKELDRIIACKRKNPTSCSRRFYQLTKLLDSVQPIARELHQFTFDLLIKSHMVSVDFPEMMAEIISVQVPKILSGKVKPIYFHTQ
In words: androgenic activity (EC50 and intrinsic activity), transactivation bioassay in CHO-AR-pMMTV-LUC cells (Table 4). It is filed as cell-based. The procedure:
(§1) Compounds were tested for their Androgen Receptor activity in a transactivation assay and in a binding assay.
(§2) The (anti-)androgenic activity of test compounds (EC50 and intrinsic activity) was determined in an in vitro bioassay of Chinese hamster ovary (CHO) cells stably transfected with the human androgen receptor expression plasmid and a reporter plasmid in which the MMTV-promoter is linked to the luciferase reporter gene. The cell-line CHO-AR-pMMTV-LUC 1G12-A5-CA is described in Schoonen et al. (2000), Journal of Steroid Biochemistry and Molecular Biology 74(4):213-222. The antiandrogenic activity of a test compound was determined by the inhibition of the transactivation via the androgen receptor of the enzyme luciferase in the presence of 1 nM DHT (5α-dihydrotestosterone, 17β-hydroxy-5α-androstan-3-one). Intrinsic activity of antiandrogenic activity was determined in the presence of the reference antiandrogen 2-Hydroxy-2-methyl-N-(4-nitro-3-trifluoromethyl-phenyl)-propionamide(Hydroxyflutamide), and set at 100%. For androgenic activity, maximal intrinsic activity in the presence of 100 nM DHT was set at 100%.

The target in assay [2] is T1, human androgen receptor. In words: cell-based. The note with it: in the presence of 1 nM DHT. As to the method: as §1, §2
Setting [3] is: androgenic activity, read-out: ago EC50.
The mark [4] stands for this setting: antiandrogenic activity, read-out: ant EC50.

Usually EC50 stands for the concentration giving half of the maximal effect. For the compound `COc1ccc2c(Sc3ccccc3[N+](=O)[O-])cn(Cc3ccc(Cl)c(C(F)(F)F)c3)c2c1` [Compound 76], the results for the EC50 at human androgen receptor [1] (setting [3]) and at human androgen receptor [2] (setting [4]) were less than 1000 nM and more than 10000 nM, respectively. As to `COc1ccc2c(Sc3ccccc3[N+](=O)[O-])cn(Cc3ccccc3[N+](=O)[O-])c2c1` [Compound 8], the EC50 at human androgen receptor [1] (ago EC50, androgenic activity) was 5 to 100 nM; at human androgen receptor [2] (ant EC50, antiandrogenic activity), more than 10000 nM. Consider `COc1ccc2c(Sc3ccccc3[N+](=O)[O-])cn(Cc3cccnc3)c2c1` [Compound 75], for which the figures for the concentration giving a half-maximal response (EC50) on human androgen receptor [1] (setting [3]) and at human androgen receptor [2] (setting [4]) were less than 5 nM and more than 10000 nM, respectively. Regarding `O=[N+]([O-])c1ccccc1Sc1cn(Cc2cc(F)cc(F)c2)c2cc(O)ccc12` [Compound 61, 1-(3,5-Difluoro-benzyl)-3-(2-nitro-phenylsulfanyl)-1H-indol-6-ol], at human androgen receptor [1] (setting [3]), the half-maximal effective concentration (EC50) is less than 5 nM. Turning to `CN1CCN(C(=O)c2ccc3c(Sc4ccccc4[N+](=O)[O-])cn(Cc4cc(F)cc(F)c4)c3c2)CC1` [Compound 29], the EC50 at human androgen receptor [1] (setting [3]) is 5 to 100 nM; at human androgen receptor [2] (setting [4]), more than 10000 nM.

For `COc1ccc2c(Sc3ccccc3[N+](=O)[O-])cn(Cc3ccccc3C#N)c2c1` [Compound 4], the EC50 was less than 1000 nM on human androgen receptor [1] (setting [3]) and 5 to 100 nM at human androgen receptor [2] (setting [4]). Regarding `COc1ccc2c(Sc3cccc[n+]3[O-])cn(Cc3cc(F)cc(F)c3)c2c1` [Compound 66], the EC50 at human androgen receptor [1] (setting [3]) was less than 1000 nM; on human androgen receptor [2] (setting [4]), 5 to 100 nM.

Take `COc1ccc2c(Sc3ccccc3[N+](=O)[O-])cn(Cc3cccc(F)c3)c2c1` [Compound 71]: the concentration for a half-maximal effect (EC50) at human androgen receptor [1] (setting [3]) is less than 5 nM; at human androgen receptor [2] (setting [4]), more than 10000 nM.

In the case of `COc1ccc2c(Sc3ccccc3[N+](=O)[O-])cn(Cc3cccc([N+](=O)[O-])c3C)c2c1` [Compound 6], the 50% effective concentration (EC50) on human androgen receptor [1] (ago EC50, androgenic activity) is less than 1000 nM; at human androgen receptor [2] (setting [4]), more than 10000 nM. Take `COC(=O)CNC(=O)c1ccc2c(Sc3ccccc3[N+](=O)[O-])cn(Cc3cc(F)cc(F)c3)c2c1` [Compound 39]: the concentration for a half-maximal effect (EC50) on human androgen receptor [1] (setting [3]) is 5 to 100 nM; at human androgen receptor [2] (setting [4]) it was more than 10000 nM.

As to `COc1ccc2c(Sc3ccccc3[N+](=O)[O-])cn(Cc3ccccc3C)c2c1` [Compound 7], the EC50 is 5 to 100 nM on human androgen receptor [1] (setting [3]) and more than 10000 nM at human androgen receptor [2] (setting [4]). The like results for `COc1ccc2c(Sc3ccccc3[N+](=O)[O-])cn(Cc3ccccn3)c2c1` [Compound 9, 6-Methoxy-3-(2-nitro-phenylsulfanyl)-1-pyridin-2-ylmethyl-1H-indole] were, in that order, less than 5 nM and less than 5 nM. In the case of `O=C(NCc1ccco1)c1ccc2c(Sc3ccccc3[N+](=O)[O-])cn(Cc3cc(F)cc(F)c3)c2c1` [Compound 34], the half-maximal effective concentration (EC50) on human androgen receptor [1] (setting [3]) is 5 to 100 nM; on human androgen receptor [2] (setting [4]), more than 10000 nM. As to `COc1ccc2c(Sc3ccccc3[N+](=O)[O-])cn(Cc3ccccn3)c2c1.Cl` [Compound 10, 6-Methoxy-3-(2-nitro-phenylsulfanyl)-1-pyridin-2-ylmethyl-1H-indole monohydrochloride], the figures for the EC50 on human androgen receptor [1] (setting [3]) and on human androgen receptor [2] (setting [4]) were 5 to 100 nM and more than 10000 nM, respectively. Moreover, the ant efficacy result on human androgen receptor [2] (reference antiandrogen Hydroxyflutamide set at 100%) is given as “− (− <0.20)”. `Cc1cccc2c1c(Sc1ccccc1[N+](=O)[O-])cn2Cc1cc(F)cc(F)c1` [Compound 55]: the figures for the concentration giving a half-maximal response (EC50) at human androgen receptor [1] (setting [3]) and at human androgen receptor [2] (setting [4]) were 5 to 100 nM and more than 10000 nM, respectively.

For the compound `COc1ccc2c(Sc3ccccc3[N+](=O)[O-])cn(Cc3cccc(Cl)c3)c2c1` [Compound 67], the concentration for a half-maximal effect (EC50) was 5 to 100 nM on human androgen receptor [1] (setting [3]) and more than 10000 nM on human androgen receptor [2] (setting [4]). On to `O=C(Nc1ccc2c(Sc3ccccc3[N+](=O)[O-])cn(Cc3cc(F)cc(F)c3)c2c1)C(F)(F)F` [Compound 59, N-[1-(3,5-Difluoro-benzyl)-3-(2-nitro-phenylsulfanyl)-1H-indol-6-yl]-2,2,2-trifluoro-acetamide], for which the results for the concentration for a half-maximal effect (EC50) on human androgen receptor [1] (setting [3]) and at human androgen receptor [2] (setting [4]) were less than 5 nM and more than 10000 nM, respectively. Consider `COc1ccc2c(Sc3ccccc3[N+](=O)[O-])cn(Cc3cc(F)ccc3C(F)(F)F)c2c1` [Compound 70], for which the results for the EC50 at human androgen receptor [1] (setting [3]) and on human androgen receptor [2] (setting [4]) were 5 to 100 nM and more than 10000 nM, respectively. On to `O=C(c1ccc2c(Sc3ccccc3[N+](=O)[O-])cn(Cc3cc(F)cc(F)c3)c2c1)N1CCOCC1` [Compound 28], for which the concentration giving a half-maximal response (EC50) is 5 to 100 nM on human androgen receptor [1] (setting [3]) and more than 10000 nM on human androgen receptor [2] (setting [4]). Take `CNC(=O)c1ccccc1Sc1cn(Cc2cc(F)cc(F)c2)c2cc(OC)ccc12` [Compound 17, 2-[1-(3,5-Difluoro-benzyl)-6-methoxy-1H-indol-3-ylsulfanyl]-N-methyl-benzamide]: the results for the concentration for a half-maximal effect (EC50) on human androgen receptor [1] (setting [3]) and at human androgen receptor [2] (setting [4]) were more than 10000 nM and less than 1000 nM, respectively. The like results for `N#Cc1ccc2c(Sc3ccccc3[N+](=O)[O-])cn(Cc3cc(F)cc(F)c3)c2c1` [Compound 26, 1-(3,5-Difluoro-benzyl)-3-(2-nitro-phenylsulfanyl)-1H-indole-6-carbonitrile] were, in that order, less than 5 nM and more than 10000 nM.

As to `COc1ccc2c(Sc3ccccc3[N+](=O)[O-])cn(Cc3cccc(OC(F)(F)F)c3)c2c1` [Compound 77], the values for the EC50 on human androgen receptor [1] (setting [3]) and at human androgen receptor [2] (setting [4]) were 5 to 100 nM and more than 10000 nM, respectively. Consider `COc1ccc2c(S(=O)(=O)c3ccccc3[N+](=O)[O-])cn(Cc3cc(F)cc(F)c3)c2c1` [Compound 62, 1-(3,5-Difluoro-benzyl)-6-methoxy-3-(2-nitro-benzenesulfonyl)-1H-indole], for which the EC50 is less than 5 nM on human androgen receptor [1] (setting [3]) and more than 10000 nM on human androgen receptor [2] (setting [4]). The corresponding values for `COc1ccc2c(Sc3ccccc3[N+](=O)[O-])cn(CC3CCCCC3)c2c1` [Compound 89] are 5 to 100 nM and less than 5 nM. `O=[N+]([O-])c1ccccc1Sc1cn(Cc2cc(F)cc(F)c2)c2cccc(Cl)c12` [Compound 54]: the values for the EC50 on human androgen receptor [1] (setting [3]) and at human androgen receptor [2] (setting [4]) were 5 to 100 nM and more than 10000 nM, respectively. With `COc1ccc2c(Sc3ccccc3[N+](=O)[O-])cn(Cc3c(C)noc3C)c2c1` [Compound 80], the EC50 on human androgen receptor [1] (setting [3]) and on human androgen receptor [2] (setting [4]) was less than 1000 nM each time. `O=[N+]([O-])c1ccccc1Sc1cn(Cc2cc(F)cc(F)c2)c2cccc(F)c12` [Compound 51]: the EC50 on human androgen receptor [1] (setting [3]) was less than 5 nM; on human androgen receptor [2] (setting [4]) it was more than 10000 nM. The corresponding values for `COc1ccc2c(Sc3ccccc3[N+](=O)[O-])cn(Cc3ccc(Cl)c(Cl)c3)c2c1` [Compound 14] are less than 1000 nM and more than 10000 nM. For the compound `COc1ccc2c(Sc3ccccc3[N+](=O)[O-])cn(Cc3ccc(F)cc3)c2c1` [Compound 83], the EC50 at human androgen receptor [1] (setting [3]) was 5 to 100 nM; on human androgen receptor [2] (setting [4]) it was more than 10000 nM.

With `COc1ccc2c(Sc3ccccc3[N+](=O)[O-])cn(Cc3ccccc3C(F)(F)F)c2c1` [Compound 12], the EC50 at human androgen receptor [1] (setting [3]) is less than 1000 nM; on human androgen receptor [2] (setting [4]), more than 10000 nM. Regarding `COC(=O)c1ccc2c(Sc3ccccc3[N+](=O)[O-])cn(Cc3cc(F)cc(F)c3)c2c1` [Compound 31, 1-(3,5-Difluoro-benzyl)-3-(2-nitro-phenylsulfanyl)-1H-indole-6-carboxylic acid methyl ester], the EC50 at human androgen receptor [1] (setting [3]) was less than 5 nM; on human androgen receptor [2] (setting [4]), more than 10000 nM. Take `CN(C)C(=O)CNC(=O)c1ccc2c(Sc3ccccc3[N+](=O)[O-])cn(Cc3cc(F)cc(F)c3)c2c1` [Compound 40]: the EC50 on human androgen receptor [1] (setting [3]) was 5 to 100 nM; at human androgen receptor [2] (setting [4]) it was more than 10000 nM. Turning to `CN(C)CCNC(=O)c1ccc2c(Sc3ccccc3[N+](=O)[O-])cn(Cc3cc(F)cc(F)c3)c2c1` [Compound 36], the EC50 is 5 to 100 nM at human androgen receptor [1] (setting [3]) and more than 10000 nM at human androgen receptor [2] (setting [4]). Turning to `O=C(NCC1CC1)c1ccc2c(Sc3ccccc3[N+](=O)[O-])cn(Cc3cc(F)cc(F)c3)c2c1` [Compound 41], the half-maximal effective concentration (EC50) at human androgen receptor [1] (setting [3]) was less than 5 nM; on human androgen receptor [2] (setting [4]) it was more than 10000 nM. The like results for `COc1cccc(Cn2cc(Sc3ccccc3[N+](=O)[O-])c3ccc(OC)cc32)c1` [Compound 72] were, in that order, 5 to 100 nM and more than 10000 nM. For the compound `COc1ccc2c(Sc3ccccc3C(N)=O)cn(Cc3cc(F)cc(F)c3)c2c1` [Compound 18, 2-[1-(3,5-Difluoro-benzyl)-6-methoxy-1H-indol-3-ylsulfanyl]-benzamide], the 50% effective concentration (EC50) on human androgen receptor [1] (setting [3]) and at human androgen receptor [2] (setting [4]) was 5 to 100 nM in each case. Turning to `O=[N+]([O-])c1ccccc1Sc1cn(Cc2cc(F)cc(F)c2)c2ccc(O)cc12` [Compound 56], the EC50 on human androgen receptor [1] (setting [3]) was less than 5 nM.
